Test results taken from patent publication US9572828B2, “Treatment for melanoma” (The Board of Regents of the University of Texas System, priority 2013, dated 2017).

Assays:
[1] = test system: primary melanomas from patients; assay: xenograft assay, digitoxin and/or GSK1120212; assay type: in vivo, NSG mice; details: 0.5 mg/kg/day each agent by oral gavage; melanomas from multiple patients, with and without BRAF mutations
Protocol: Melanoma cells were injected subcutaneously in the right flanks of immunocompromised NSG mice. When tumors became palpable, mice were randomized to four different treatments. […] Control mice received vehicle only (200 μl 0.5% promethylcellulose, 0.2% Tween80 and 5% DMSO per day). Tumors were measured every 2-3 days with calipers.
In these experiments, metastatic melanoma cells were injected subcutaneously in the right flanks of immunocompromised NSG mice. When tumors became palpable, mice were randomized to four different treatments. […] Control mice received vehicle only (200 μl 0.5% promethylcellulose, 0.2% Tween80 and 5% DMSO per day). Tumors were measured every 2-3 days with calipers and bioluminescence imaging was performed when the diameter of the tumors in vehicle treated mice reached 2 cm.

[2] = 4 hours after 0.5 mg/kg injection (FIG. 1C)
[3] = human, in vivo; cited from earlier work
[4] = human, in vivo; cited from earlier work; remark: listed apart in the source
[5] = test system: BRAFV600E/K mutant advanced or malignant melanoma; details: cited from earlier work

## C[C@H]1O[C@@H](O[C@H]2[C@@H](O)C[C@H](O[C@H]3[C@@H](O)C[C@H](O[C@H]4CC[C@@]5(C)[C@H](CC[C@@H]6[C@@H]5CC[C@]5(C)[C@@H](C7=CC(=O)OC7)CC[C@]65O)C4)O[C@@H]3C)O[C@@H]2C)C[C@H](O)[C@@H]1O [digitoxin]
[1]
  growth of human melanoma xenografts: slowed the growth
[2]
  doses in the plasma of mice: fell within the therapeutic range in humans

## C[C@H]1O[C@@H](O[C@H]2[C@@H](O)C[C@H](O[C@H]3[C@@H](O)C[C@H](O[C@H]4CC[C@@]5(C)[C@H](CC[C@@H]6[C@@H]5C[C@@H](O)[C@]5(C)[C@@H](C7=CC(=O)OC7)CC[C@]65O)C4)O[C@@H]3C)O[C@@H]2C)C[C@H](O)[C@@H]1O [digoxin]
[3]
  frequency of common adverse effects (loss of appetite, nausea, vomiting, diarrhea etc.): ≥ 1 % of patients
  plasma concentration at which adverse effects are rare: < 0.8 ng/mL
[4]
  half-life: about 36 hours

## CC(=O)Nc1cccc(-n2c(=O)n(C3CC3)c(=O)c3c(Nc4ccc(I)cc4F)n(C)c(=O)c(C)c32)c1 [Trametinib]
[5]; MEKi class effect
  chorioretinopathy: < 1%
  decreased ejection fraction: 7%
[5]; Trametinib arm
  Grade 3 hypertension: 12%
  Grade 3 rash: 7%
